Laboratory results as given in US20230148214A1, “INDAZOLES AND AZAINDAZOLES AS LRRK2 INHIBITORS” (ESCAPE Bio, Inc., priority 2020, published 2023).
pIC50: −log10 of the molar value.

What was measured:
LRRK2 WT = molecular target: T1, LRRK2 WT (Homo sapiens, UniProt Q5S007); experiment: LRRK2 Kinase Activity Assay (LanthaScreen TR-FRET), wild type; format: biochemical; conditions: recombinant wild type LRRK2, 25 μM ATP, 400 nM LRRKtide, 60 min
T1 construct: purchased Life Technologies PR8604B
Summary of the method: (§1)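 Recombinant wild-type or G2019S LRRK2 incubated with fluorescein-labeled LRRKtide (ERM-based) peptide, ATP and serially diluted compound for 60 min at room temperature.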

LRRK2 G2019S = molecular target: T2, LRRK2 G2019S (Homo sapiens, UniProt Q5S007, G2019S); experiment: LRRK2 Kinase Activity Assay (LanthaScreen TR-FRET), G2019S; format: biochemical; conditions: recombinant G2019S-LRRK2, 25 μM ATP, 400 nM LRRKtide, 60 min; class symbols
T2 construct: purchased Life Technologies PV4881
Summary of the method: as §1

T2 sequence (Q5S007 whole entry G2019S): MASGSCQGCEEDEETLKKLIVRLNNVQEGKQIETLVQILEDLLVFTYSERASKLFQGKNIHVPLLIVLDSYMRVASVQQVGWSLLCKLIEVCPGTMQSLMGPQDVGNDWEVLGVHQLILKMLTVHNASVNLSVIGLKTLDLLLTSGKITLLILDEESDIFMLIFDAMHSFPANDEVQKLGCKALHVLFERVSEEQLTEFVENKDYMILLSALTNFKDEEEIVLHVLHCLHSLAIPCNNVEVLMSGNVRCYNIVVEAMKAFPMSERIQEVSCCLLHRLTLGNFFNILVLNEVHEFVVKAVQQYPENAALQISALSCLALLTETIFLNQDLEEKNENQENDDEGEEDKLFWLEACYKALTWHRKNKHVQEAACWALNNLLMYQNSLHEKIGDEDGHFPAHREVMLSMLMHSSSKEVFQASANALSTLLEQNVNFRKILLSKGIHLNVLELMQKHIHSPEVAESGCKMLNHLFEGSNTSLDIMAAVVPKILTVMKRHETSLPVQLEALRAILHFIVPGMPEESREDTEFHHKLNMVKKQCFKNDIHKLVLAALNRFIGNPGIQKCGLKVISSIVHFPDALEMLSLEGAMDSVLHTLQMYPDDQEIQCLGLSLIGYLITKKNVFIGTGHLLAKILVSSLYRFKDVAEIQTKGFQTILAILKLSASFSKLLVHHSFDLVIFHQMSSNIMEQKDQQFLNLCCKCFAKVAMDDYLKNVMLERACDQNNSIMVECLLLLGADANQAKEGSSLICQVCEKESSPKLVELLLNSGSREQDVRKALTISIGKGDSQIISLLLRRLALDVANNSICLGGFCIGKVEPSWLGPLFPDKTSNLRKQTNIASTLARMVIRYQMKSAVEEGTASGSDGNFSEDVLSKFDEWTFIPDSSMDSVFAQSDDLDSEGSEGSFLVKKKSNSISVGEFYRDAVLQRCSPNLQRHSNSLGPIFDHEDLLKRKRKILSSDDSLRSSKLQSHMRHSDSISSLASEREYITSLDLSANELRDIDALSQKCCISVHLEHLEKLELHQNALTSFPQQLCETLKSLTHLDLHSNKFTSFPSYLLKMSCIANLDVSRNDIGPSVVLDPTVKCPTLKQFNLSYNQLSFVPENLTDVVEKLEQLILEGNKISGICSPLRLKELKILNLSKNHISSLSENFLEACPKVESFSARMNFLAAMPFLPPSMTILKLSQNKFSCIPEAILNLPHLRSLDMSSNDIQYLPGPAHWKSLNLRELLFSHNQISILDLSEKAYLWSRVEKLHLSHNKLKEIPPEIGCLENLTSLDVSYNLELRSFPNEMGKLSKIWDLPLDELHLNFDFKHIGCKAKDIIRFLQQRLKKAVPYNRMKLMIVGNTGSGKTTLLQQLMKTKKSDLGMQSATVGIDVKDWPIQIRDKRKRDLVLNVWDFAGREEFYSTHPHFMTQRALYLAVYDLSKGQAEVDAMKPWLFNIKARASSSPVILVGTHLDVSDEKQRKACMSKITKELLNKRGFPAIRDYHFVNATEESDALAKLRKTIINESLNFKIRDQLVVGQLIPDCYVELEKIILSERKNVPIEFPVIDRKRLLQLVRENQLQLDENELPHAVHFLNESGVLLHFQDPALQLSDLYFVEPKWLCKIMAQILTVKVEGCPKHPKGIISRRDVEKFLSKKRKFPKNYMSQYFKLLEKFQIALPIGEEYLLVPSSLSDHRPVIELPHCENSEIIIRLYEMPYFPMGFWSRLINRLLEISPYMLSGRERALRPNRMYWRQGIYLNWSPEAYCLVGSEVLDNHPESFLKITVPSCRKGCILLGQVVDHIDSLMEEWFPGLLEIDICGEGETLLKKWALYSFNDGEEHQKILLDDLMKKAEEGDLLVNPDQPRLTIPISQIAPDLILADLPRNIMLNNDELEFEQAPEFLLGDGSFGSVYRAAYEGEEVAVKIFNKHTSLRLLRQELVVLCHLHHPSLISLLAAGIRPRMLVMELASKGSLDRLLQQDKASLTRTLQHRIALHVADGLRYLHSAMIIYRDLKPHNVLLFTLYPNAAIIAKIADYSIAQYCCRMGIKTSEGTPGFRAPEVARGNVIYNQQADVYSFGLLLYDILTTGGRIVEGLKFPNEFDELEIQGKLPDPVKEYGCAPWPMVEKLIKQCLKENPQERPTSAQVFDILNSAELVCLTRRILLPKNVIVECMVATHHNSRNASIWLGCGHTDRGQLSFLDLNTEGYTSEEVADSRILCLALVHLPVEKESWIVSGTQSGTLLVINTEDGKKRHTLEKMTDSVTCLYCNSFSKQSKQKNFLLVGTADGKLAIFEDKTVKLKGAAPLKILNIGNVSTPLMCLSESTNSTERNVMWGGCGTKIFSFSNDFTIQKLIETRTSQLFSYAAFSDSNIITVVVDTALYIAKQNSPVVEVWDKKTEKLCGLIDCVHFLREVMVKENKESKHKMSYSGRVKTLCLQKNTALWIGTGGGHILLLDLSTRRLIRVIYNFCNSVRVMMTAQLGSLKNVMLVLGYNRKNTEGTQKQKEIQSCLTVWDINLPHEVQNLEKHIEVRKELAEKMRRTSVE
T1 sequence (Q5S007 whole entry): as the sequence (Q5S007 whole entry G2019S) above, with S2019G counted along it

pIC50 (LRRK2 WT; class symbols) | pIC50 (LRRK2 G2019S) | pIC50 (LRRK2 WT; numeric bound) | Structure (SMILES)
> 7.00 | > 7.00 |  | N#Cc1ccc2c(c1)CCC[C@@H]2Nc1ccc2[nH]nc(-c3ccc4scnc4c3)c2c1 (single isomer, unassigned) [Example 67, 5-((3-(Benzo[d]thiazol-5-yl)-1H-indazol-5-yl)amino)-5,6,7,8-tetrahydronaphthalene-2-carbonitrile]
> 7.00 | > 7.00 |  | N#Cc1ccc2c(c1)CCC[C@@H]2Nc1ccc2[nH]nc(-c3cccc(C(F)F)c3)c2c1 (single isomer, unassigned) [Example 68, 5-((3-(3-(Difluoromethyl)phenyl)-1H-indazol-5-yl)amino)-5,6,7,8-tetrahydronaphthalene-2-carbonitrile]
> 7.00 | > 7.00 |  | CONC(=O)c1cccc(-c2n[nH]c3ccc(N[C@H]4CCCc5cc(C#N)ccc54)cc23)c1 (single isomer, unassigned) [Example 69, 3-(5-((6-Cyano-1,2,3,4-tetrahydronaphthalen-1-yl)amino)-1H-indazol-3-yl)-N-methoxybenzamide]
6.00 to 7.00 | > 7.00 |  | N#Cc1ccc2c(c1)CCC[C@@H]2Nc1ccc2[nH]nc(-c3ccc([N+](=O)[O-])cc3)c2c1 (single isomer, unassigned) [Example 70, 5-((3-(4-Nitrophenyl)-1H-indazol-5-yl)amino)-5,6,7,8-tetrahydronaphthalene-2-carbonitrile]
> 7.00 | > 7.00 |  | COc1ccc(-c2n[nH]c3ccc(N[C@H]4CCCc5cc(C#N)ccc54)cc23)cc1OC (single isomer, unassigned) [Example 71, 5-((3-(3,4-Dimethoxyphenyl)-1H-indazol-5-yl)amino)-5,6,7,8-tetrahydronaphthalene-2-carbonitrile]
> 7.00 | > 7.00 |  | N#Cc1ccc2c(c1)CCC[C@@H]2Nc1ccc2[nH]nc(-c3ccc(N4CCOCC4)cc3)c2c1 (single isomer, unassigned) [Example 72, 5-((3-(4-Morpholinophenyl)-1H-indazol-5-yl)amino)-5,6,7,8-tetrahydronaphthalene-2-carbonitrile]
6.00 to 7.00 | > 7.00 |  | COc1ccc(-c2n[nH]c3ccc(N[C@H]4CCCc5cc(C#N)ccc54)cc23)cc1C (single isomer, unassigned) [Example 73, 5-((3-(4-Methoxy-3-methylphenyl)-1H-indazol-5-yl)amino)-5,6,7,8-tetrahydronaphthalene-2-carbonitrile]
> 7.00 | > 7.00 |  | CS(=O)(=O)c1ccc(-c2n[nH]c3ccc(N[C@H]4CCCc5cc(C#N)ccc54)cc23)cc1 (single isomer, unassigned) [Example 74, 5-((3-(4-(Methylsulfonyl)phenyl)-1H-indazol-5-yl)amino)-5,6,7,8-tetrahydronaphthalene-2-carbonitrile]
6.00 to 7.00 | > 7.00 |  | C/C=C/c1n[nH]c2ccc(N[C@H]3CCCc4cc(C#N)ccc43)cc12 (single isomer, unassigned) [Example 75, (E)-5-((3-(Prop-1-en-1-yl)-1H-indazol-5-yl)amino)-5,6,7,8-tetrahydronaphthalene-2-carbonitrile]
> 7.00 | > 7.00 |  | N#Cc1ccc2c(c1)CCC[C@@H]2Nc1ccc2[nH]nc(-c3cncc(C4CC4)c3)c2c1 (single isomer, unassigned) [Example 76, 5-((3-(5-Cyclopropylpyridin-3-yl)-1H-indazol-5-yl)amino)-5,6,7,8-tetrahydronaphthalene-2-carbonitrile]
> 7.00 | > 7.00 |  | N#Cc1ccc2c(c1)CCC[C@@H]2Nc1ccc2[nH]nc(-c3ccc4c(c3)OCO4)c2c1 (single isomer, unassigned) [Example 77, 5-((3-(Benzo[d][1,3]dioxol-5-yl)-1H-indazol-5-yl)amino)-5,6,7,8-tetrahydronaphthalene-2-carbonitrile]
6.00 to 7.00 | > 7.00 |  | N#Cc1ccc2c(c1)CCC[C@@H]2Nc1ccc2[nH]nc(-c3ccc4[nH]ccc4c3)c2c1 (single isomer, unassigned) [Example 78, 5-((3-(1H-Indol-5-yl)-1H-indazol-5-yl)amino)-5,6,7,8-tetrahydronaphthalene-2-carbonitrile]
6.00 to 7.00 | > 7.00 |  | N#Cc1ccc2c(c1)CCC[C@@H]2Nc1ccc2[nH]nc(-c3ccc[nH]3)c2c1 (single isomer, unassigned) [Example 79, 5-((3-(1H-Pyrrol-2-yl)-1H-indazol-5-yl)amino)-5,6,7,8-tetrahydronaphthalene-2-carbonitrile]
 | 6.00 to 7.00 | < 5.00 | CC(C)(C)OC(=O)n1cccc1-c1n[nH]c2ccc(N[C@H]3CCCc4cc(C#N)ccc43)cc12 (single isomer, unassigned) [Example 80, tert-Butyl 2-(5-((6-cyano-1,2,3,4-tetrahydronaphthalen-1-yl)amino)-1H-indazol-3-yl)-1H-pyrrole-1-carboxylate]

Further lines, the compound ahead of its results:

Structure (SMILES) | pIC50 (LRRK2 WT; class symbols) | pIC50 (LRRK2 G2019S) | pIC50 (LRRK2 WT; numeric bound)
Cc1c(C#N)ccc2c1CC[C@@H]2Nc1ccc2[nH]nc(-c3cnn(C(F)F)c3)c2c1 (single isomer, unassigned) [Example 52, enantiomer 1, 1-((3-(1-(Difluoromethyl)-1H-pyrazol-4-yl)-1H-indazol-5-yl)amino)-4-methyl-2,3-dihydro-1H-indene-5-carbonitrile] | > 7.00 | > 7.00 | 
N#Cc1ccc2c(c1F)CC[C@H]2Nc1ccc2[nH]nc(-c3cnn(C(F)F)c3)c2c1 (single isomer, unassigned) [Example 53, enantiomer 1, 1-((3-(1-(Difluoromethyl)-1H-pyrazol-4-yl)-1H-indazol-5-yl)amino)-4-fluoro-2,3-dihydro-1H-indene-5-carbonitrile] | > 7.00 | > 7.00 | 
N#Cc1ccc2c(c1F)CC[C@H]2Nc1ccc2[nH]nc(-c3cnn(C(F)F)c3)c2c1 (single isomer, unassigned) [Example 53, enantiomer 2, 1-((3-(1-(Difluoromethyl)-1H-pyrazol-4-yl)-1H-indazol-5-yl)amino)-4-fluoro-2,3-dihydro-1H-indene-5-carbonitrile] | 6.00 to 7.00 | > 7.00 | 
N#Cc1ccc2c(c1)CCC[C@@H]2Nc1ccc2[nH]nc(C3=CCCCC3)c2c1 (single isomer, unassigned) [Example 54, 5-((3-(Cyclohex-1-en-1-yl)-1H-indazol-5-yl)amino)-5,6,7,8-tetrahydronaphthalene-2-carbonitrile] | 5.00 to 6.00 | 6.00 to 7.00 | 
N#Cc1ccc2c(c1)CCC[C@@H]2Nc1ccc2[nH]nc(-c3ccc(C(=O)O)cc3)c2c1 (single isomer, unassigned) [Example 55, 4-(5-((6-Cyano-1,2,3,4-tetrahydronaphthalen-1-yl)amino)-1H-indazol-3-yl)benzoic acid] | > 7.00 | > 7.00 | 
Cn1cc2ccc(-c3n[nH]c4ccc(N[C@H]5CCCc6cc(C#N)ccc65)cc34)cc2n1 (single isomer, unassigned) [Example 56, 5-((2′-Methyl-1H,2′H-[3,6′-biindazol]-5-yl)amino)-5,6,7,8-tetrahydronaphthalene-2-carbonitrile] | 5.00 to 6.00 | 6.00 to 7.00 | 
CS(=O)(=O)c1cccc(-c2n[nH]c3ccc(N[C@H]4CCCc5cc(C#N)ccc54)cc23)c1 (single isomer, unassigned) [Example 57, 5-((3-(3-(Methylsulfonyl)phenyl)-1H-indazol-5-yl)amino)-5,6,7,8-tetrahydronaphthalene-2-carbonitrile] | > 7.00 | > 7.00 | 
COc1cc(OC)cc(-c2n[nH]c3ccc(N[C@H]4CCCc5cc(C#N)ccc54)cc23)c1 (single isomer, unassigned) [Example 58, 5-((3-(3,5-Dimethoxyphenyl)-1H-indazol-5-yl)amino)-5,6,7,8-tetrahydronaphthalene-2-carbonitrile] | 6.00 to 7.00 | > 7.00 | 
Cc1ncc(-c2n[nH]c3ccc(N[C@H]4CCCc5cc(C#N)ccc54)cc23)o1 (single isomer, unassigned) [Example 60, 5-((3-(2-Methyloxazol-5-yl)-1H-indazol-5-yl)amino)-5,6,7,8-tetrahydronaphthalene-2-carbonitrile] | > 7.00 | > 7.00 | 
N#Cc1ccc2c(c1)CCC[C@@H]2Nc1ccc2[nH]nc(-c3ccc4cc[nH]c4c3)c2c1 (single isomer, unassigned) [Example 61, 5-((3-(1H-Indol-6-yl)-1H-indazol-5-yl)amino)-5,6,7,8-tetrahydronaphthalene-2-carbonitrile] | 6.00 to 7.00 | > 7.00 | 
Cn1cc(-c2n[nH]c3ccc(N[C@H]4CCCc5cc(C#N)ccc54)cc23)ccc1=O (single isomer, unassigned) [Example 62, 5-((3-(1-Methyl-6-oxo-1,6-dihydropyridin-3-yl)-1H-indazol-5-yl)amino)-5,6,7,8-tetrahydronaphthalene-2-carbonitrile] | > 7.00 | > 7.00 | 
N#Cc1ccc(-c2n[nH]c3ccc(N[C@H]4CCCc5cc(C#N)ccc54)cc23)cc1 (single isomer, unassigned) [Example 63, 5-((3-(4-Cyanophenyl)-1H-indazol-5-yl)amino)-5,6,7,8-tetrahydronaphthalene-2-carbonitrile] | 6.00 to 7.00 | > 7.00 | 
N#Cc1ccc2c(c1)CCC[C@@H]2Nc1ccc2[nH]nc(C3=CCCC3)c2c1 (single isomer, unassigned) [Example 65, 5-((3-(Cyclopent-1-en-1-yl)-1H-indazol-5-yl)amino)-5,6,7,8-tetrahydronaphthalene-2-carbonitrile] | 5.00 to 6.00 | 6.00 to 7.00 | 
N#Cc1ccc2c(c1)CCC[C@@H]2Nc1ccc2[nH]nc(-c3ccc(F)c(C(=O)O)c3)c2c1 (single isomer, unassigned) [Example 66, 5-(5-((6-Cyano-1,2,3,4-tetrahydronaphthalen-1-yl)amino)-1H-indazol-3-yl)-2-fluorobenzoic acid] | 6.00 to 7.00 | > 7.00 | 
